Test results reported in patent publication US20260285850A1, “SUBSTITUTED OXAZOLIDINONES AND IMIDAZOLINONES AS HERBICIDES” (FMC CORPORATION, priority 2023, published 2026).

How the values were obtained:
Type in all cases: in vivo
[1] = test system: barnyardgrass (Echinochloa crus-galli); assay: Test A preemergence soil spray, visual injury rating 0-100; details: 10 days, 0 = no effect, 100 = complete control
Text: (§1) Seeds of plant species selected from barnyardgrass (Echinochloa crus-galli), blackgrass (Alopecurus myosuroides), corn (Zea mays), foxtail, giant (giant foxtail, Setaria faberi), green foxtail (Setaria viridis), goosegrass (Eleusine indica), kochia (Bassia scoparia), oat, wild (wild oat, Avena fatua), palmer (palmer amaranth, palmer pigweed, Amaranthus palmeri), ragweed (common ragweed, Ambrosia artemisiifolia), ryegrass, Italian (italian ryegrass, Lolium multiflorum), soybean (Glycine max) and wheat (Triticum aestivum) were planted into a blend of loam soil and sand and treated preemergence with a directed soil spray using test chemicals formulated in a non-phytotoxic solvent mixture which included a surfactant.
(§2) At the same time, plants selected from these crops and weed species and also galium (catchweed bedstraw, Galium aparine) and horseweed (Erigeron canadensis) were planted in pots containing the same blend of loam soil and sand and treated with postemergence applications of test chemicals formulated in the same manner. Plants ranged in height from 2 to 10 cm and were in the one- to two-leaf stage for the postemergence treatment. Treated plants and untreated controls were maintained in a greenhouse for 10 days, after which time all treated plants were compared to untreated controls and visually evaluated for injury. Plant response ratings, summarized in Table A, are based on a 0 to 100 scale where 0 is no effect and 100 is complete control. A dash (-) response means no test result.

[2] = test system: blackgrass (Alopecurus myosuroides); assay: as above; details: 10 days, 0 = no effect, 100 = complete control
Text: as §1, §2

[3] = test system: corn (Zea mays); assay: as above; details: 10 days, 0 = no effect, 100 = complete control
Text: as §1, §2

[4] = test system: green foxtail (Setaria viridis); assay: as above; details: 10 days, 0 = no effect, 100 = complete control
Text: as §1, §2

[5] = test system: kochia (Bassia scoparia); assay: as above; details: 10 days, 0 = no effect, 100 = complete control
Text: as §1, §2

[6] = test system: oat, wild (wild oat, Avena fatua); assay: as above; details: 10 days, 0 = no effect, 100 = complete control
Text: as §1, §2

[7] = test system: palmer (palmer amaranth, palmer pigweed, Amaranthus palmeri); assay: as above; details: 10 days, 0 = no effect, 100 = complete control
Text: as §1, §2

[8] = test system: ragweed (common ragweed, Ambrosia artemisiifolia); assay: as above; details: 10 days, 0 = no effect, 100 = complete control
Text: as §1, §2

[9] = test system: ryegrass, Italian (italian ryegrass, Lolium multiflorum); assay: as above; details: 10 days, 0 = no effect, 100 = complete control
Text: as §1, §2

[10] = test system: soybean (Glycine max); assay: as above; details: 10 days, 0 = no effect, 100 = complete control
Text: as §1, §2

[11] = test system: wheat (Triticum aestivum); assay: as above; details: 10 days, 0 = no effect, 100 = complete control
Text: as §1, §2

[12] = test system: barnyardgrass (Echinochloa crus-galli); assay: Test A postemergence application, visual injury rating 0-100; details: 10 days
Text: as §1, §2

[13] = test system: blackgrass (Alopecurus myosuroides); assay: as above; details: 10 days
Text: as §1, §2

[14] = test system: corn (Zea mays); assay: as above; details: 10 days
Text: as §1, §2

[15] = test system: green foxtail (Setaria viridis); assay: as above; details: 10 days
Text: as §1, §2

[16] = test system: horseweed (Erigeron canadensis); assay: as above; details: 10 days
Text: as §1, §2

[17] = test system: kochia (Bassia scoparia); assay: as above; details: 10 days
Text: as §1, §2

[18] = test system: oat, wild (wild oat, Avena fatua); assay: as above; details: 10 days
Text: as §1, §2

[19] = test system: palmer (palmer amaranth, palmer pigweed, Amaranthus palmeri); assay: as above; details: 10 days
Text: as §1, §2

[20] = test system: ragweed (common ragweed, Ambrosia artemisiifolia); assay: as above; details: 10 days
Text: as §1, §2

[21] = test system: ryegrass, Italian (italian ryegrass, Lolium multiflorum); assay: as above; details: 10 days
Text: as §1, §2

[22] = test system: soybean (Glycine max); assay: as above; details: 10 days
Text: as §1, §2

[23] = test system: wheat (Triticum aestivum); assay: as above; details: 10 days
Text: as §1, §2

[24] = test system: barnyardgrass (Echinochloa crusgalli); assay: Test B flooded paddy test, visual plant response rating 0-100; details: 250 g ai/ha, Flood, applied to paddy water, evaluated after 13 days
Method: (§3) Plant species in the flooded paddy test selected from barnyardgrass (Echinochloa crusgalli), ducksalad (Heteranthera limosa), rice (Oryza sativa), and sedge, umbrella (small-flower umbrella sedge, Cyperus difformis) were grown to the 2-leaf stage for testing. At time of treatment, test pots were flooded to 3 cm above the soil surface, treated by application of test compounds directly to the paddy water, and then maintained at that water depth for the duration of the test. Treated plants and controls were maintained in a greenhouse for 13 days, after which time all species were compared to controls and visually evaluated. […] A dash (-) response means no test result.

[25] = test system: ducksalad (Heteranthera limosa); assay: as above; details: 250 g ai/ha, Flood, applied to paddy water, evaluated after 13 days
Method: as §3

[26] = test system: rice (Oryza sativa); assay: as above; details: 250 g ai/ha, Flood, applied to paddy water, evaluated after 13 days
Method: as §3

[27] = test system: sedge, umbrella (small-flower umbrella sedge, Cyperus difformis); assay: as above; details: 250 g ai/ha, Flood, applied to paddy water, evaluated after 13 days
Method: as §3

[28] = 31 g ai/ha, postemergence, 0 = no effect, 100 = complete control
[29] = Postemergence, 125 g ai/ha, 0 is no effect, 100 is complete control

## CCOC(=O)C1CCC(NC(=O)C2(C)CN(c3cc(F)cc(F)c3)C(=O)O2)C1 (centres unmarked) [Compound 11]
[1]; 31 g ai/ha
  Barnyardgrass plant response rating (0-100): 0
[1]; 125 g ai/ha
  Barnyardgrass plant response rating (0 to 100 scale): 100
[2]; 31 g ai/ha
  Blackgrass plant response rating (0-100): 20
[2]; 125 g ai/ha
  Blackgrass plant response rating (0 to 100 scale): 90
[3]; 31 g ai/ha
  Corn plant response rating (0-100): 0
[3]; 125 g ai/ha
  Corn plant response rating (0 to 100 scale): 50
[4]; 31 g ai/ha
  Foxtail, Green plant response rating (0-100): 0
[4]; 125 g ai/ha
  Foxtail, Green plant response rating (0 to 100 scale): 100
[5]; 31 g ai/ha
  Kochia plant response rating (0-100): 0
[5]; 125 g ai/ha
  Kochia plant response rating (0 to 100 scale): 50
[6]; 31 g ai/ha
  Oat, Wild plant response rating (0-100): 20
[6]; 125 g ai/ha
  Oat, Wild plant response rating (0 to 100 scale): 80
[7]; 31 g ai/ha
  Amaranth, Palmer plant response rating (0-100): 0
[7]; 125 g ai/ha
  Amaranth, Palmer plant response rating (0 to 100 scale): 30
[8]; 31 g ai/ha
  Ragweed plant response rating (0-100): 0
[8]; 125 g ai/ha
  Ragweed plant response rating (0 to 100 scale): 70
[9]; 31 g ai/ha
  Ryegrass, Italian plant response rating (0-100): 40
[9]; 125 g ai/ha
  Ryegrass, Italian plant response rating (0 to 100 scale): 90
[10]; 31 g ai/ha
  Soybean plant response rating (0-100): 0
[10]; 125 g ai/ha
  Soybean plant response rating (0 to 100 scale): 20
[11]; 31 g ai/ha
  Wheat plant response rating (0-100): 90
[11]; 125 g ai/ha
  Wheat plant response rating (0 to 100 scale): 100
[12]; [28]
  Barnyardgrass plant response rating (0-100): 60
[12]; [29]
  Barnyardgrass plant response rating (0 to 100 scale): 100
[13]; [28]
  Blackgrass plant response rating (0-100): 30
[13]; [29]
  Blackgrass plant response rating (0 to 100 scale): 90
[14]; [28]
  Corn plant response rating (0-100): 10
[14]; [29]
  Corn plant response rating (0 to 100 scale): 80
[15]; [28]
  Foxtail, Green plant response rating (0-100): 30
[15]; [29]
  Foxtail, Green plant response rating (0 to 100 scale): 90
[16]; [28]
  Horseweed plant response rating (0-100): 30
[16]; [29]
  Horseweed plant response rating (0 to 100 scale): 20
[17]; [28]
  Kochia plant response rating (0-100): 20
[17]; [29]
  Kochia plant response rating (0 to 100 scale): 80
[18]; [28]
  Oat, Wild plant response rating (0-100): 80
[18]; [29]
  Oat, Wild plant response rating (0 to 100 scale): 90
[19]; [28]
  Amaranth, Palmer plant response rating (0-100): 30
[19]; [29]
  Amaranth, Palmer / Pigweed, Palmer plant response rating (0 to 100 scale): 60
[20]; [28]
  Ragweed plant response rating (0-100): 0
[20]; [29]
  Ragweed plant response rating (0 to 100 scale): 0
[21]; [28]
  Ryegrass, Italian plant response rating (0-100): 50
[21]; [29]
  Ryegrass, Italian plant response rating (0 to 100 scale): 70
[22]; [28]
  Soybean plant response rating (0-100): 50
[22]; [29]
  Soybean plant response rating (0 to 100 scale): 60
[23]; [28]
  Wheat plant response rating (0-100): 80
[23]; [29]
  Wheat plant response rating (0 to 100 scale): 90
[24]
  Plant response rating, Barnyardgrass (0 to 100 scale, 0 is no effect and 100 is complete control): 50
[25]
  Plant response rating, Ducksalad (0 to 100 scale, 0 is no effect and 100 is complete control): 65
[26]
  Plant response rating, Rice (0 to 100 scale, 0 is no effect and 100 is complete control): 25
[27]
  Plant response rating, Sedge, Umbrella (0 to 100 scale, 0 is no effect and 100 is complete control): 60
